Measurements as given in patent US20140128352A1, “COMPOUNDS AND METHODS FOR MODULATING MITOCHONDRIAL METABOLISM AND REACTIVE OXYGEN SPECIES PRODUCTION” (Buck Institute for Research on Aging, priority 2012, published 2014).

Columns and labels:
complex I = experiment: Rate of NAD(P)H reduction via complex I versus observed ROS production; assay type: biochemical, rat; conditions: 2.5 uM; succinate with low glutamate; FIG. 2B
Method: To compare candidate IQ ROS inhibitors with mitochondrial inhibitors known to disrupt complex I activity (e.g. rotenone) or oxidize the electron transport chain (e.g. the uncoupler FCCP), the rate of NAD(P)H reduction via complex I was measured when isolated mitochondria were provided with saturating concentrations of the complex II substrate succinate (5 mM) and subsaturating levels of glutamate (1 mM) to facilitate full activation of complex II by oxaloacetate removal. […] These conditions allow electron and proton fluxes through complex Ito reverse and be directed predominantly toward the matrix. Addition of succinate causes a rapid increase in the reduction state of the matrix NAD(P)H pool that can be monitored as described above. The rate of NAD(P)H reduction is therefore a measure of electron flux through complex I for which direct comparisons can be made under identical conditions to effects on rates of ROS production.

GPDH = target: T1, GPDH (Rattus norvegicus, UniProt P35571); experiment: Retest of GPDH ROS production (expanded microplate panel / cuvette); assay type: biochemical; conditions: microplate or cuvette
T1 construct: from tissue; host or cells: rat skeletal muscle mitochondria (Wistar, Harlan Laboratories)
T1 sequence (P35571 43-727): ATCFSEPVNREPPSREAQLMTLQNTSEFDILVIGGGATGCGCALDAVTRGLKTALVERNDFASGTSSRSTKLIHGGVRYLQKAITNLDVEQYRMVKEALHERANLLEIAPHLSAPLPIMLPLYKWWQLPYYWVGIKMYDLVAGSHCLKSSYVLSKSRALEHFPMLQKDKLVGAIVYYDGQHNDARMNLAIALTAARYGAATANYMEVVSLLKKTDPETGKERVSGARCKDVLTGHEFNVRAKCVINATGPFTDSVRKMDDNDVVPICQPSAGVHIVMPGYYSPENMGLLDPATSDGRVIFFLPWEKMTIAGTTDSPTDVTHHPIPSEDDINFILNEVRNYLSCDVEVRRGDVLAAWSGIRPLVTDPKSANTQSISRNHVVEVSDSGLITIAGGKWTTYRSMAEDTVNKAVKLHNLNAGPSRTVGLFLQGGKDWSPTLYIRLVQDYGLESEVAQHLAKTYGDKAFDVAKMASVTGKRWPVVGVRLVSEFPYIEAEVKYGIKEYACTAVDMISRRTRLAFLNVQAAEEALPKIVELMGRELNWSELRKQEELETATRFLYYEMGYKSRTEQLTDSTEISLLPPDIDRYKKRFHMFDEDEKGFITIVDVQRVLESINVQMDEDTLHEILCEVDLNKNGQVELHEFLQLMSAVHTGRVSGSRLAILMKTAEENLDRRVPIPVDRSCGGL
Method: Compounds identified as site-selective hits as well as structural analogs were re-sourced from ChemBridge and dissolved in DMSO as 80 mM stocks. Master Titration Plates were prepared manually by serially diluting 80 mM compound stocks between 0.08 and 80 mM on 96-well microplates. Four compounds were titrated in duplicate on each plate. Additional DMSO controls were interspersed across these plates to serve as local normalization controls during analysis since two-way median polishing was not appropriate. Just prior to use, compounds were diluted 100-fold with standard buffer (10X). The same known inhibitor positive controls were included on each plate as during high-throughput screening.
The five core ROS assays and single ΔΨm assay were carried out as in the initial high-throughput screen. In addition, several assays were included to help validate the specificity of the compounds for a given site of production. All compounds were titrated against separate assays targeting IQ ROS and IIIQo ROS using subsaturating (0.5 mM final) succinate. […] Specifically, ΔΨm was monitored separately with 5 mM succinate (in the presence of 4 μM rotenone) in addition to glutamate and malate as before. The use of different substrates was designed to reveal compounds that disrupt mitochondrial function in a substrate specific manner.
Most frequently, these changes involved the use of different substrates to supply electrons from an alternative entry point in the chain. If a site of ROS production is being targeted selectively by a compound, then in many cases the supply of electrons should not influence the effectiveness of this compound at suppressing ROS production. […]
The fluorescence values in each well were scaled in relation to the intra-plate DMSO and known inhibitor controls as in the high-throughput screen except that median values for local interspersed DMSO wells (3-6 wells) were used rather than just the 8 DMSO wells in columns 1 and 12. […]

Structure (SMILES) | suppression of observed ROS before any sign of altered flux through CI to NADH (complex I) | effect on GPDH ROS on retesting (GPDH)
O=[N+]([O-])c1ccc(Oc2ccc(S(=O)(=O)NC3CCCCC3)cc2)cc1 [Compound 4] | at least 45% | 
O=C(O)CSc1cccc(C(=O)Nc2ccc(Br)cc2)c1 [Compound 47] |  | progressively inhibited GPDH ROS
O=C(O)CCC(=O)Nc1ccc(-c2nc3cc4ccccc4cc3[nH]2)cc1 [Compound 61] |  | more potent inhibitor of GPDH-specific ROS, ΔΨm, and respiration
